{"source": "patent US20190076440A1", "about": "“TREATMENT OF TISSUE DISORDERS” (priority 2016, published 2019)", "key": {"[1]": {"system": "cells expressing wild-type (WT) or N617K collagen X", "assay": "General protein synthesis rates in cells expressing collagen X", "assay_type": "cell-based", "conditions": "CBZ for 24 hours", "protocol": "FIG. 5 illustrates the effect of CBZ treatment in vitro (a) Cell viability of cell treated with 20 μM CBZ. (b) Collagen X mRNA level of HeLa cells transiently transfected with a rang of collagen X mutations in the presence or absence of CBZ for 24 hours. (c) General protein synthesis rates of cells expressing wild-type (WT) or N617K collagen X and treated with CBZ for 24 hours. UTF=untransfected cell controls. Mean±SEM of three independent experiments in each case."}, "mutant collagen X": {"system": "mutant collagen X", "assay": "Western blot of intracellular mutant collagen X protein, with proteasome or lysosome inhibitors", "assay_type": "cell-based", "protocol": "FIG. 1 illustrates the effects of carbamazepine treatment on ER stress induced by four different MCDS-causing mutations in collagen X; (a) BiP, b) CHOP c) spliced XBP1 mRNA level in cells transiently expressing one of four mutant collagen X constructs and treated for 24 hours with Carbamazepine (CBZ) (20 μM). Quantitation is relative to actin mRNA levels. Mean±SEM. (d) Western blot showing intracellular collagen X protein levels with and without 24 hours CBZ treatment. Quantification of three independent experiments shown in (e). (f) Western blot for N617K collagen X collagen X protein levels in the presence of CBZ for either 0 or 24 hours. […] Quantification of three independent experiments relative to GAPDH and standardised against the protein level in the 16 h untreated timepoint is shown in (h) and (i). […]\nFIG. 6 illustrates the degradation route of mutant collagen X proteins Western blot for (a) G618V or (c) Y598D collagen X protein levels in the presence of CBZ for either 0 or 24 hours. […] Quantification of three independent experiments relative to GAPDH and standardised against the protein level in the 16 h untreated timepoint is shown in (b) and (d). […]\nProtein was extracted from cells 24 hours post-transfection. […] The resulting supernatant was transferred to a fresh tube and protein concentration determined using a Pierce bicinchoninic acid (BCA) protein assay. […]"}, "[2]": {"system": "wild type (+/+) or Col1a2 p.G610C (+/-) osteoblast cells", "assay": "Cellular stress assay: CHOP expression by qPCR in osteoblasts", "assay_type": "cell-based, mouse", "conditions": "20 μM CBZ, 21 days, relative to DMSO controls", "procedure": "Cells were incubated for 21 days with 20 μM CBZ before extracting RNA and quantification by qPCR. Each data point represents a separate biological replicate. Error bars show standard error of mean. *=p<0.05.\nExpression levels of CCAAT-enhancer binding protein homologous protein (CHOP) was measured. Wild type (+/+) or Col1a2 p.G610C (+/−) cells were incubated in osteogenic differentiation media for 21 days with or without 20 μM CBZ.\nRNA was extracted from the cells after 21 days and the levels of Chop gene expression was quantified by qPCR using a protocol as previously described herein."}}, "data": [{"smiles": "NC(=O)N1c2ccccc2C=Cc2ccccc21", "note": "[CBZ, Carbamazepine]", "values": [{"measurement": "rates of general protein synthesis", "setting": "[1]", "result": "did not affect"}, {"measurement": "degradation rates of mutant collagen X proteins", "setting": "mutant collagen X; each of 4 mutant collagen X proteins, PSII or chloroquine for the final 8 hours", "result": "enhanced the degradation rates"}, {"measurement": "intracellular levels of mutant collagen X protein", "setting": "mutant collagen X; each of 4 mutations, 24 hours CBZ treatment", "result": "significant reductions"}, {"measurement": "Chop expression", "setting": "[2]", "result": "significantly decreased"}]}]}
